Data published in patent publication US11840528B2 (Hoffmann-La Roche Inc., priority 2018, dated 2023).

Tests used:
h-GABA-A α5β3γ2 [1] = biological target: T1, h-GABA-A α5β3γ2 (Homo sapiens, UniProt P18507+P31644); assay: Two-electrode voltage clamp electrophysiology in Xenopus laevis oocytes expressing GABAA receptors, modulation of GABA EC20 current; assay type: cell-based; set-up: host or cells: Xenopus laevis oocytes micro-injected with RNA transcripts of the subunits; conditions: Table 1; for Efficacy (GABA) %: % modulation of GABA EC20 = 100*(Fold increase-1); for Fold increase h-GABA-A α5β3γ2 oocyte: test compound at approx. 30 fold its Ki, GABA at EC20
Outline: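 Modulation is reported as % of the GABA EC20 current, calculated as 100*(Fold increase−1) from the peak ratio between a second GABA response carrying compound (applied at roughly 30-fold Ki) and a preceding control response. Oocytes expressing human α5β3γ2 were clamped at −80 mV at room temperature, 3–5 days after injection.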

h-GABA-A α5β3γ2 [2] = biological target: T1, h-GABA-A α5β3γ2; assay: [3H]flumazenil competition binding assay, membranes of HEK293 cells expressing GABAA receptors; conditions: displacement of [3H]-Flumazenil 0.5 nM, HEK293 cells expressing human receptors, mean of two determinations; Table 1
Outline: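 Receptor source: human α5β3γ2 transiently transfected into HEK293 cells, membranes in pH 7.5 Krebs-tris. Filtration through GF/C, then scintillation counting.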

| SMILES | Efficacy (GABA) % (h-GABA-A α5β3γ2 [1]) | Fold increase h-GABA-A α5β3γ2 oocyte (h-GABA-A α5β3γ2 [1]) | Ki (h-GABA-A α5β3γ2 [2]) |
| --- | --- | --- | --- |
| Cc1ccc(-c2noc(C)c2Cn2ncc(-c3cnn(C(F)F)c3)cc2=O)cn1 [Example 154, 5-(1-(difluoromethyl)-1H-pyrazol-4-yl)-2-((5-methyl-3-(6-methylpyridin-3-yl)isoxazol-4-yl)methyl)pyridazin-3(2H)-one] | 244% | 3.44 | 23.7 nM |
| COc1ccccc1C1CCN(c2cnn(Cc3c(-c4ccc(C)nc4)noc3C)c(=O)c2)CC1 [Example 61, 5-[4-(2-methoxyphenyl)-1-piperidyl]-2-[[5-methyl-3-(6-methyl-3-pyridyl)isoxazol-4-yl]methyl]pyridazin-3-one] | 76% | 1.76 | 15.4 nM |
| Cc1ccc(-c2noc(C)c2Cn2ncc(N3CCN(C(=O)C4(C)CC4)CC3)cc2=O)cn1 [Example 10, 2-((5-methyl-3-(6-methylpyridin-3-yl)isoxazol-4-yl)methyl)-5-(4-(1-methylcyclopropanecarbonyl)piperazin-1-yl)pyridazin-3(2H)-one] | 222% | 3.22 | 21.9 nM |
| Cc1ccc(-c2noc(C)c2Cn2ncc(N3C[C@@H](C)O[C@@H](C)C3)cc2=O)cn1 [Example 7, 5-(cis-2,6-dimethylmorpholin-4-yl)-2-((5-methyl-3-(6-methylpyridin-3-yl)-1,2-oxazol-4-yl)methyl)pyridazin-3-one] | 253% | 3.53 | 1 nM |
| CO[C@@H]1COC2(C1)CN(c1cnn(Cc3c(-c4ccc(C)nc4)noc3C)c(=O)c1)C2 [Example 133, 5-[(7S)-7-methoxy-5-oxa-2-azaspiro[3.4]octan-2-yl]-2-[[5-methyl-3-(6-methyl-3-pyridyl)isoxazol-4-yl]methyl]pyridazin-3-one] | 172% | 2.72 | 81.2 nM |
| COc1cccc(-c2cnn(Cc3c(-c4ccc(C)nc4)noc3C)c(=O)c2)n1 [Example 145, 5-(6-methoxy-2-pyridyl)-2-((5-methyl-3-(6-methyl-3-pyridyl)isoxazol-4-yl)methyl)pyridazin-3-one] | 119% | 2.19 | 26.2 nM |

Next, values leading:

| Efficacy (GABA) % (h-GABA-A α5β3γ2 [1]) | Fold increase h-GABA-A α5β3γ2 oocyte (h-GABA-A α5β3γ2 [1]) | Ki (h-GABA-A α5β3γ2 [2]) | SMILES |
| --- | --- | --- | --- |
| 101% | 2.01 | 21.7 nM | CNc1ccc(-c2cnn(Cc3c(-c4ccc(C)nc4)noc3C)c(=O)c2)cn1 [Example 174, 5-(6-(methylamino)-3-pyridyl)-2-((5-methyl-3-(6-methyl-3-pyridyl)isoxazol-4-yl)methyl)pyridazin-3-one] |
| 324% | 4.24 | 40.9 nM | Cc1ccc(-c2noc(C)c2Cn2ncc(-c3cccc(C#N)n3)cc2=O)cn1 [Example 211, 6-(1-((5-methyl-3-(6-methyl-3-pyridyl)isoxazol-4-yl)methyl)-6-oxo-pyridazin-4-yl)pyridine-2-carbonitrile] |
| 126% | 2.26 | 4.2 nM | Cc1ccc(-c2noc(C)c2Cn2ncc(N3CC(OCC4CC4)C3)cc2=O)nn1 [Example 185, 5-[3-(cyclopropylmethoxy)azetidin-1-yl]-2-[[5-methyl-3-(6-methylpyridazin-3-yl)isoxazol-4-yl]methyl]pyridazin-3-one] |
| 86% | 1.86 | 6.6 nM | Cc1ccc(-c2noc(C)c2Cn2ncc(-c3ccnc(OC(F)F)c3)cc2=O)cn1 [Example 175, 5-(2-(difluoromethoxy)pyridin-4-yl)-2-((5-methyl-3-(6-methylpyridin-3-yl)isoxazol-4-yl)methyl)pyridazin-3(2H)-one] |
| 103% | 2.03 | 7.9 nM | Cc1ccc(-c2noc(C)c2Cn2ncc(N3CC4(CCC(C)CO4)C3)cc2=O)nn1 (single isomer, unassigned) [Example 313] |
| 124% | 2.24 | 2.8 nM | CCO[C@H]1CN(c2cnn(Cc3c(-c4ccc(Cl)nc4)noc3C)c(=O)c2)[C@H]1C [Example 291, 2-((3-(6-chloropyridin-3-yl)-5-methylisoxazol-4-yl)methyl)-5-((2S,3S)-3-ethoxy-2-methylazetidin-1-yl)pyridazin-3(2H)-one] |
| 205% | 3.05 | 4.2 nM | Cc1onc(-c2ccc(Cl)nc2)c1Cn1ncc(N2CCN(c3ccnnc3)CC2)cc1=O [Example 263, 2-((3-(6-chloropyridin-3-yl)-5-methylisoxazol-4-yl)methyl)-5-(4-(pyridazin-4-yl)piperazin-1-yl)pyridazin-3(2H)-one] |
| 96% | 1.96 | 9.6 nM | Cc1ccc(-c2noc(C)c2Cn2ncc(N3CC(OCC(F)(F)F)C3)cc2=O)cn1 [Example 158, 2-[[5-methyl-3-(6-methyl-3-pyridyl)isoxazol-4-yl]methyl]-5-[3-(2,2,2-trifluoroethoxy)azetidin-1-yl]pyridazin-3-one] |
| 41% | 1.41 | 3.8 nM | COc1cc(-c2cnn(Cc3c(-c4ncc(C(F)(F)F)cn4)noc3C)c(=O)c2)ccn1 [Example 228, 5-(2-methoxypyridin-4-yl)-2-((5-methyl-3-(5-(trifluoromethyl)pyrimidin-2-yl)isoxazol-4-yl)methyl)pyridazin-3(2H)-one] |
